# Reference: patent US11932658B2 (BRISTOL-MYERS SQUIBB COMPANY, priority 2016, dated 2024)
# Target: T1, PAR4 (Homo sapiens, UniProt Q96RI0)
# T1 construct: expressed in transfected cells; host or cells: HEK293 PAR4 Clone 1.2A (BMS Arctic ID 383940)
# T1 sequence (Q96RI0 18-385): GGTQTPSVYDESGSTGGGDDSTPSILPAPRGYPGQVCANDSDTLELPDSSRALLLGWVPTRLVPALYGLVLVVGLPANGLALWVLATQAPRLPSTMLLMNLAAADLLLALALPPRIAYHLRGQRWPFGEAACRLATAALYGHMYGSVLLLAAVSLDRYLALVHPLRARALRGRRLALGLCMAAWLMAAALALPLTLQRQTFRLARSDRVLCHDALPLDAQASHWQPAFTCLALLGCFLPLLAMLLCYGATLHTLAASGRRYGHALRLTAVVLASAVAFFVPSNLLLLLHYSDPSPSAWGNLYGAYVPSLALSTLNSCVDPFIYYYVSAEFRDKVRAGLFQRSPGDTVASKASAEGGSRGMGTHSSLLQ
# Test: PAR4 FLIPR assay (antagonism of agonist peptide-induced calcium mobilization)
# Format: cell-based
# Procedure, shortened: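 Antagonism was taken as block of calcium mobilization evoked by the agonist peptide H-Ala-Phe(4-F)-Pro-Gly-Trp-Leu-Val-Lys-Asn-[…]-NH2, added after 30 min room-temperature compound preincubation in dye-loaded PAR4-transfected HEK293 cells (endogenous PAR1). Fluorescence was read on FDSS, with compound addition alone used as the agonist counter-screen; values come from 11-point concentration-response curves.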
row,Structure (SMILES),IC50 [nM]
1,"COc1cnc2c(-c3nc4cc(F)c5c(c4s3)C[C@H](CNC(=O)Oc3ccccc3)O5)cc(C)cc2n1 [Example 220, (R)-phenyl ((5-fluoro-2-(2-methoxy-7-methylquinoxalin-5-yl)-7,8-dihydrobenzofuro[5,4-d]thiazol-7-yl)methyl)carbamate]",38
2,"COc1cnc2c(-c3nc4cc(F)c5c(c4s3)C[C@H](CNC(=O)OCc3ccccc3)O5)cc(C)cc2n1 [Example 221, (R)-benzyl ((5-fluoro-2-(2-methoxy-7-methylquinoxalin-5-yl)-7,8-dihydrobenzofuro[5,4-d]thiazol-7-yl)methyl)carbamate]",5.9
3,"COc1cnc2c(-c3nc4cc(F)c5c(c4s3)C[C@H](CNC(=O)C(F)(F)F)O5)cc(C)cc2n1 [Example 222, (R)-2,2,2-trifluoro-N-((5-fluoro-2-(2-methoxy-7-methylquinoxalin-5-yl)-7,8-dihydrobenzofuro[5,4-d]thiazol-7-yl)methyl)acetamide]",> 500
4,"COc1cnc2c(-c3nc4cc(F)c5c(c4s3)C[C@H](CNC(=O)OC(C)(C)C)O5)cc(C)cc2n1 [Example 223, (R)-tert-butyl ((5-fluoro-2-(2-methoxy-7-methylquinoxalin-5-yl)-7,8-dihydrobenzofuro[5,4-d]thiazol-7-yl)methyl)carbamate]",5.8
5,"COc1cnc2c(-c3nc4ccc5c(c4s3)C[C@@H](CNC(=O)OCc3ccccc3)O5)cc(C)cc2n1 [Example 225, (S)-benzyl ((2-(2-methoxy-7-methylquinoxalin-5-yl)-7,8-dihydrobenzofuro[5,4-d]thiazol-7-yl)methy 1)carbamate]",0.6
6,"COc1cnc2c(-c3nc4ccc5c(c4s3)C[C@@H](CNS(C)(=O)=O)O5)cc(C)cc2n1 [Example 228, (S)-N-((2-(2-methoxy-7-methylquinoxalin-5-yl)-7,8-dihydrobenzofuro[5,4-d]thiazol-7-yl)methyl)methanesulfonamide]",190
7,"COc1cnc2c(-c3nc4ccc5c(c4s3)C[C@@H](CNC(=O)OCc3cccc(C#N)c3)O5)cc(C)cc2n1 [Example 231, (S)-3-cyanobenzyl ((2-(2-methoxy-7-methylquinoxalin-5-yl)-7,8-dihydrobenzofuro[5,4-d]thiazol-7-yl)methy 1)carbamate]",5.8
8,"COc1cnc2c(-c3nc4ccc5c(c4s3)C[C@@H](CNC(=O)OCc3cccnc3)O5)cc(C)cc2n1 [Example 232, (S)-pyridin-3-ylmethyl ((2-(2-methoxy-7-methylquinoxalin-5-yl)-7,8-dihydrobenzofuro[5,4-d]thiazol-7-yl)methy 1)carbamate]",3.3
9,"COc1cnc2c(-c3nc4ccc5c(c4s3)C[C@@H](CNC(=O)OCc3ccncc3)O5)cc(C)cc2n1 [Example 233, (S)-pyridin-4-ylmethyl ((2-(2-methoxy-7-methylquinoxalin-5-yl)-7,8-dihydrobenzofuro[5,4-d]thiazol-7-yl)methy 1)carbamate]",6.6
10,"COc1cnc2c(-c3nc4cc(F)c5c(c4s3)C[C@@](C)(COP(=O)(O)O)O5)cc(C)cc2n1 [Example 237, (S)-(5-fluoro-2-(2-methoxy-7-methylquinoxalin-5-yl)-7-methyl-7,8-dihydrobenzofuro[5,4-d]thiazol-7-yl)methyl dihydrogen phosphate]",40
11,"COc1cnc2c(-c3nc4cc(F)c5c(c4s3)[C@H](C)[C@@H](CO)O5)cc(C)cc2n1 [Example 238, ((7S,8S)-5-fluoro-2-(2-methoxy-7-methylquinoxalin-5-yl)-8-methyl-7,8-dihydrobenzofuro[5,4-d]thiazol-7-yl)methanol]",1.3
12,"COc1cnc2c(-c3nc4cc(F)c5c(c4s3)[C@@H](C)[C@H](CO)O5)cc(C)cc2n1 [Example 239, ((7R,8R)-5-fluoro-2-(2-methoxy-7-methylquinoxalin-5-yl)-8-methyl-7,8-dihydrobenzofuro[5,4-d]thiazol-7-yl)methanol]",49
13,"COC(=O)NC[C@]1(C)Cc2c(c(F)cc3nc(-c4cc(C)cc5nc(OC)cnc45)sc23)O1 [Example 240, (S)-methyl ((5-fluoro-2-(2-methoxy-7-methylquinoxalin-5-yl)-7-methyl-7,8-dihydrobenzofuro[5,4-d]thiazol-7-yl)methyl)carbamate]",32
14,"COc1cnc2c(-c3nc4cc(F)c5c(c4s3)C[C@@](C)(CNC(=O)OCC(C)C)O5)cc(C)cc2n1 [Example 241, (S)-isobutyl ((5-fluoro-2-(2-methoxy-7-methylquinoxalin-5-yl)-7-methyl-7,8-dihydrobenzofuro[5,4-d]thiazol-7-yl)methyl)carbamate]",8.6
15,"COc1cnc2c(-c3nc4cc(F)c5c(c4s3)C[C@@](C)(CNC(=O)OC(C)(C)C)O5)cc(C)cc2n1 [Example 242, (S)-tert-butyl ((5-fluoro-2-(2-methoxy-7-methylquinoxalin-5-yl)-7-methyl-7,8-dihydrobenzofuro[5,4-d]thiazol-7-yl)methyl)carbamate]",9.3
16,"COc1cnc2c(-c3nc4cc(F)c5c(c4s3)C[C@@H](CNC(=O)OCC(C)C)O5)cc(C)cc2n1 [Example 246, (S)-isobutyl ((5-fluoro-2-(2-methoxy-7-methylquinoxalin-5-yl)-7,8-dihydrobenzofuro[5,4-d]thiazol-7-yl)methyl)carbamate]",5
17,"COc1cnc2c(-c3nc4cc(F)c5c(c4s3)C[C@@H](CNC(=O)OCCF)O5)cc(C)cc2n1 [Example 247, (S)-2-fluoroethyl ((5-fluoro-2-(2-methoxy-7-methylquinoxalin-5-yl)-7,8-dihydrobenzofuro[5,4-d]thiazol-7-yl)methyl)carbamate]",0.7
18,"COc1cnc2c(-c3nc4cc(F)c5c(c4s3)C[C@@H](CNC(=O)Nc3ccccc3)O5)cc(C)cc2n1 [Example 248, (S)-1-((5-fluoro-2-(2-methoxy-7-methylquinoxalin-5-yl)-7,8-dihydrobenzofuro[5,4-d]thiazol-7-yl)methyl)-3-phenylurea]",7

# Now from value to compound:
row,IC50 [nM],Structure (SMILES)
1,4,"COc1cnc2c(-c3nc4ccc5c(c4s3)C[C@@H](CNC(=O)OCC(C)C)O5)cc(C)cc2n1 [Example 224, (S)-isobutyl ((2-(2-methoxy-7-methylquinoxalin-5-yl)-7,8-dihydrobenzofuro [5,4-d]thiazol-7-yl)methyl)carbamate]"
2,1.4,"COC(=O)NC[C@@H]1Cc2c(ccc3nc(-c4cc(C)cc5nc(OC)cnc45)sc23)O1 [Example 226, (S)-methyl ((2-(2-methoxy-7-methylquinoxalin-5-yl)-7,8-dihydrobenzofuro[5,4-d]thiazol-7-yl)methy 1)carbamate]"
3,1.3,"COc1cnc2c(-c3nc4ccc5c(c4s3)C[C@@H](CNC(=O)OC3CCOCC3)O5)cc(C)cc2n1 [Example 227, (S)-tetrahydro-2H-pyran-4-yl ((2-(2-methoxy-7-methylquinoxalin-5-yl)-7,8-dihydrobenzofuro[5,4-d]thiazol-7-yl)methy 1)carbamate]"
4,20,"COc1cnc2c(-c3nc4ccc5c(c4s3)C[C@@H](CNC(=O)OCC3CCOC3)O5)cc(C)cc2n1 (stereo partly drawn) [Example 229, (Tetrahydrofuran-3-yl)methyl (((S)-2-(2-methoxy-7-methylquinoxalin-5-yl)-7,8-dihydrobenzofuro[5,4-d]thiazol-7-yl)methyl)carbamate]"
5,6.4,"COc1cnc2c(-c3nc4ccc5c(c4s3)C[C@@H](CNC(=O)O[C@@H]3CCOC3)O5)cc(C)cc2n1 [Example 230, (R)-tetrahydrofuran-3-yl (((S)-2-(2-methoxy-7-methylquinoxalin-5-yl)-7,8-dihydrobenzofuro[5,4-d]thiazol-7-yl)methyl)carbamate]"
6,4.3,"COc1cnc2c(-c3nc4ccc5c(c4s3)C[C@@H](CNC(=O)OC3CCCOC3)O5)cc(C)cc2n1 (stereo partly drawn) [Example 234, Tetrahydro-2H-pyran-3-yl (((S)-2-(2-methoxy-7-methylquinoxalin-5-yl)-7,8-dihydrobenzofuro[5,4-d]thiazol-7-yl)methyl)carbamate]"
7,4.1,"COc1cnc2c(-c3nc4ccc5c(c4s3)C[C@@H](CNC(=O)OCC3CCCCO3)O5)cc(C)cc2n1 (stereo partly drawn) [Example 235, (Tetrahydro-2H-pyran-2-yl)methyl (((S)-2-(2-methoxy-7-methylquinoxalin-5-yl)-7,8-dihydrobenzofuro[5,4-d]thiazol-7-yl)methyl)carbamate]"
8,2.7,"COc1cnc2c(-c3nc4ccc5c(c4s3)C[C@@H](CNC(=O)O[C@H]3CCOC3)O5)cc(C)cc2n1 [Example 236, (S)-tetrahydrofuran-3-yl (((S)-2-(2-methoxy-7-methylquinoxalin-5-yl)-7,8-dihydrobenzofuro[5,4-d]thiazol-7-yl)methyl)carbamate]"
9,100,"COc1cnc2c(-c3nc4ccc5c(c4s3)C[C@@H](CNC(=O)OC(C)(C)C)O5)cc(C)cc2n1 [Example 244, (S)-tert-butyl ((2-(2-methoxy-7-methylquinoxalin-5-yl)-7,8-dihydrobenzofuro[5,4-d]thiazol-7-yl)methyl)carbamate]"
10,24,"COc1cnc2c(-c3nc4cc(F)c5c(c4s3)C[C@@H](CNC(=O)OC3CCOCC3)O5)cc(C)cc2n1 [Example 245, (S)-tetrahydro-2H-pyran-4-yl ((5-fluoro-2-(2-methoxy-7-methylquinoxalin-5-yl)-7,8-dihydrobenzofuro[5,4-d]thiazol-7-yl)methyl)carbamate]"
